According to patent US20220289731A1, “MELANOCORTIN-4 RECEPTOR AGONISTS” (LG CHEM, LTD., priority 2019, published 2022):
Where a name gives a salt, the structure may show the parent alone.

How the values were obtained:
[1] = test system: mouse obesity model induced by high fat diet; test: Mouse obesity model induced by high fat diet; assay type: in vivo, C57BL/6Ntaconic mice; settings: Day 12, 10 mg/kg, oral once a day, high-fat-diet obese mice
Experimental: The effect of melanocortin-4 receptor agonists on obesity was evaluated by using the mouse obesity model induced with a high fat diet.
Five-week-old male C57BL/6Ntaconic mice were fed with a 60 kcal % fat diet (D12492, Research Diet.) for 15 weeks to induce obesity. The compound of Example 1, the compounds of the comparative examples (A95 and A96), and sibutramine as a positive control were prepared in distilled water and orally administered to […] mouse obesity models induced by a high-fat diet once a day from day 1 to day 16. From Day 1 to Day 16, the body weight was measured once a day, the dietary intake was measured five times a week, and drinking water intake was measured twice a week. Blood glucose and glycated hemoglobin were measured on Day 15, and all animals were sacrificed on Day 17. Blood was collected through the abdominal vena cava, and the liver and epididymal adipose tissues were removed and weighed. The collected blood was placed in a heparin tube and centrifuged to separate plasma, and then plasma biochemical analysis was performed.

MC4R [2] = molecular target: T1, MC4R (Homo sapiens, UniProt P32245); test: Binding affinity, 125I-NDP-α-MSH displacement on membranes; set-up: expressed in transfected cells; host or cells: HEK-293 cells; membranes collected; settings: HEK-293 MC4R membrane, 0.02 nM 125I-NDP-α-MSH
Text: Five subtypes of melanocortin receptor (MCR) in vivo are known, and it is known that MC4R, which is Subtype 4, is involved in energy metabolism and weight control. Since other MCR subtypes are involved in the regulation of various functions in vivo such as skin pigmentation, energy homeostasis, and exocrine functions, securing selectivity for MC4R of MC4R agonist compounds is very important in preventing possible side effects in the future. Therefore, the receptor binding abilities of MC4R agonists for each MCR subtype were measured.
After the CHO-K1 cell line expressing human recombinant MC1R and the HEK-293 cell lines expressing MC3R, MC4R and MCSR were established, membranes were collected from each cell line. In a 96-well cell culture plate, 3 μg MC1R membrane and 0.04 nM ^125I-NDP-α-MSH per well were reacted at 37° C. for two hours. 3 μg MC3R and MCSR membrane and 0.035 nM ^125I-NDP-α-MSH were reacted at 37° C. for one hour, and 3.12 μg MC4R membrane and 0.02 nM ^125I-NDP-α-MSH were reacted at 37° C. for two hours. At this time, 25 mM HEPES-KOH adsorption buffer (pH 7.0) containing MCR agonist diluted at each step concentration was added to each well and reacted. The reacted solution was transferred to a filter and washed with an adsorption buffer, and then radioactivity was measured. The value excluding the non-specific binding amount in the presence of 1 μM (MC1R) and 3 μM (MC3R, MC4R, MCSR) of NDP-α-MSH from each total binding amount was used as specific binding amounts of ^125I-NDP-α-MSH. The degree to which the ^125I-NDP-α-MSH specific binding was inhibited by the agonist diluted at each step concentration was measured. IC50 was expressed as the concentration of each agonist that inhibited specific binding of 50% of ^125I-NDP-α-MSH.
Target sequence in this assay (P32245 whole entry): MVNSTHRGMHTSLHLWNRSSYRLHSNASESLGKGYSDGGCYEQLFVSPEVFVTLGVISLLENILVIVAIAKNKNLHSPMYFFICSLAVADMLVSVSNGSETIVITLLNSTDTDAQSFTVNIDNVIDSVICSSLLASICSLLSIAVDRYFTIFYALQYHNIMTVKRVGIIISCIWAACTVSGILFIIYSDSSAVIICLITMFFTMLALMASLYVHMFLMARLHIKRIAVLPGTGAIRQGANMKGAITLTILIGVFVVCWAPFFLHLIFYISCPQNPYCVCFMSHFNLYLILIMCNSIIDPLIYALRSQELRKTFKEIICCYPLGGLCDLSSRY

MC4R [3] = molecular target: T1, MC4R; test: Luciferase assay (HEK MC4R-Luc, CRE-LUC); assay type: cell-based; set-up: expressed in transfected cells; settings: HEK MC4R-Luc cells, 5 h incubation
Experimental: In order to measure the agonist ability against MC4R (melanocortin-4 receptor), a cell line that permanently expresses the luciferase gene (CRE-LUC) under the control of MC4R and CRE (cAMP response element) was established. After a mammalian cell expression vector (pCDNA3 (Neo)) (Invitrogen) containing the MC4R gene was prepared, human embryonic kidney (HEK) cell lines were transformed by using Lipofectamine 2000 (Invitrogen) together with a vector (pCRE-Luc)(Stratagen) expressing a luciferase gene (CRE-LUC) under the control of a cAMP response element (CRE). Transformed cell lines (HEK MC4R-Luc) were incubated in a 37° C. incubator in the presence of 5% CO2 for 24 hours by using Dulbecco's Modified Eagles Medium (DMEM) containing 10% Heat-Inactivated Fetal Bovine Serum (GIBCO/BRL). The cell lines were incubated for four days in the presence of Dulbecco's Modified Eagles Medium (DMEM) containing 10 ml of selection medium (10% Heat-Inactivated Fetal Bovine Serum (GIBCO/BRL), 100 unit/ml of penicillin (GIBCO/BRL), 100 unit/ml of streptomycin (GIBCO/BRL), 800 μg/ml of Geneticin (G418) (GIBCO/BRL). The process of removing cells killed by the selection medium by replacing the medium with 10 ml of a new selection medium was repeated three times, once every 4 days. Individual colonies formed by the finally selected and propagated clones were transferred under a microscope to a 24-well cell culture plate containing 1 ml of selection medium per well and incubated for 4 days. Forskolin (SIGMA) was treated to a final concentration of 10 μM, and then incubated for five hours in a 37° C. incubator in the presence of 5% CO2. Each well was treated with 50 μl of a Bright-Glo luciferase reagent (Promega) and left at room temperature for 15 minutes, and then the luminescence of each well was measured by using a luminometer (Victor).
HEK MC4R-Luc cells were added to each well of a 96-well luminometer cell culture plate (Costar) to a size of 2.5×10^4 cells in 100 μl of a culture medium and then incubated in a 37° C. incubator in the presence of 6% CO2 for 18 hours. […] Each well was treated with 50 μl of a Bright-Glo luciferase reagent (Promega) and left at room temperature for five minutes, and then the luminescence of each well was measured by using a luminometer (Victor). […] EC0.5 MSH is expressed as a concentration that induces 50% of the maximum amount of luminescence that can be induced by NDP-α-MSH, and EC50 is expressed as a concentration that induces 50% of the maximum amount of luminescence that can be induced by each agonist. The measurements were measured using statistical software (Prizm).
Target sequence in this assay (P32245 whole entry, species assumed): as the sequence (P32245 whole entry) above

MC4R [4] = molecular target: T1, MC4R; test: cAMP assay (cAMP Hunter Gs-coupled CHO-K1 cell line); assay type: cell-based; set-up: expressed in transfected cells; host or cells: CHO-K1 (cAMP Hunter Gs-coupled cell line); settings: CHO-K1 cells overexpressing MC4R, 30 min at 37° C.
Text: The melanocortin receptor is a type of G-protein coupled receptor (GPCR), and the main role of G-protein is to activate secondary transducers to regulate cellular responses to many physiological stimuli through signal transduction. MC4R is a Gs-coupled receptor, and it is known that if MC4R interacts with an agonist, adenylate cyclase (AC) is activated to increase the concentration of cyclic AMP (cAMP), which is one of the secondary transducers in cells. Therefore, it is possible to evaluate the activity of melanocortin receptors by measuring the generation of cAMP signals.
After cAMP Hunter Gs-coupled cell lines (CHO-K1 cell line) in which each of MC1R, MC3R, MC4R and MCSR was overexpressed were established so that the increase in the cAMP level in cells due to agonist reaction was measurable, the cells were inoculated into each well of a white cell culture plate and incubated for 24 hours in a 37° C. incubator in the presence of 5% CO2. After the incubation, the medium was removed, and 15 μl of a 2:1 HBBS/10 mM HEPES:cAMP XS+Ab reagent was added. After 5 μl of the sample diluted 4 times with buffer was added, the vehicle concentration was set to 1%, and the MC4R agonist compound diluted at each step concentration was added, followed by reaction at 37° C. for 30 minutes. The activity (%) of each agonist compound is expressed as 100%×(average RLU value of sample−average RLU value of vehicle control)/(average RLU value of max control−average RLU value of vehicle control), and the value was analyzed by CBIS data analysis suite (ChemInnovation, CA).
Target sequence in this assay (P32245 whole entry, species assumed): as the sequence (P32245 whole entry) above

MC4R [5] = molecular target: T1, MC4R; test: β-arrestin assay (Pathhunter eXpress U2OS cell line); assay type: cell-based; set-up: expressed in transfected cells; host or cells: U2OS (Pathhunter eXpress β-arrestin cell line); settings: U2OS cells, 90 min at 37° C.
Text: The melanocortin receptor is a type of G-protein coupled receptor (GPCR) and regulates various physiological responses by transducing signals from many neurotransmitters. When GPCR is phosphorylated, β-arrestin is bound to the phosphorylated part of the receptor and plays an important role in activating various signaling pathways in cells through interaction with other proteins. It is known that, when the melanocortin receptor interacts with an agonist, β-arrestin is mobilized and is involved in the β-arrestin-mediated signaling pathway. Therefore, the activity of the melanocortin receptor can be evaluated through the measurement of β-arrestin.
A Pathhunter eXpress β-arrestin cell line (U2OS cell line) in which Prolink (PK)-tagged MC1R, MC3R, MC4R, MC5R and Enzyme acceptor (EA)-tagged β-arrestin were expressed together was established. When the MCR-PK portion of this cell line is activated, β-arrestin-EA is mobilized, and enzyme acceptor (EA) and Prolink (PK), which are the β-galactosidase enzyme fragments, interact. The activated enzyme hydrolyzes the substrate by β-galactosidase activity to produce a chemiluminescent signal, so that the activity can be measured. After the Pathhunter eXpress β-arrestin cell line (U2OS cell line) was incubated, the cells were inoculated into each well of the cell culture plate and incubated for 48 hours in a 37° C. incubator in the presence of 5% CO2. After the incubation, 5 μl of the sample diluted 5 times with buffer was added, the vehicle concentration was set to 1%, and the MC4R agonist compound diluted at each step concentration was added, followed by reaction at 37° C. for 90 minutes. The activity (%) of each agonist compound is expressed as 100%×(average RLU value of sample−average RLU value of vehicle control)/(average maximum value of control ligand−average RLU value of vehicle control), and the value was analyzed by CBIS data analysis suite (ChemInnovation, CA).
Target sequence in this assay (P32245 whole entry): as above
Target sequence in this assay (P32121 whole entry partner): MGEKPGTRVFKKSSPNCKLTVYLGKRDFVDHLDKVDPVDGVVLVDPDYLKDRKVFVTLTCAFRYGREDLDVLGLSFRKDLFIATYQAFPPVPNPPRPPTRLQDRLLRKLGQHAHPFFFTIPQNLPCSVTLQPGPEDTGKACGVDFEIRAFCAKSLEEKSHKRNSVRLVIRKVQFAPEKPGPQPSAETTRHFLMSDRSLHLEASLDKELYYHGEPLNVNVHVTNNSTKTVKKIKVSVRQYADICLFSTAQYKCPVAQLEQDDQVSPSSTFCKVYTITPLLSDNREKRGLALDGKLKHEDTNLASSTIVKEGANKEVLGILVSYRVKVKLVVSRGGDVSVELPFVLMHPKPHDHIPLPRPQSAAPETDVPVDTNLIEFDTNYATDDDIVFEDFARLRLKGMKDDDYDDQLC

Question: Which “Difference in weight change rate to vehicle” value [1] does the source give for `CC(C)CC(N(C)C)C1(c2ccc(Cl)cc2)CCC1` (stereo not drawn) [Sibutramine] here?
Answer: −6.8%

Question: `CC(C)(C)C(=O)N([C@H]1C[C@@H](C(=O)N2CCOCC2)N(C(=O)[C@@H]2CN(C(C)(C)C)C[C@H]2c2ccc(Cl)cc2)C1)[C@H]1CC[C@@H](C)CC1` [Example 3, N-((3S,5S)-1-((3S,4R)-1-(tert-butyl)-4-(4-chlorophenyl)pyrrolidine-3-carbonyl)-5-(morpholine-4-carbonyl)pyrrolidin-3-yl)-N-((1s,4R)-4-methylcyclohexyl)pivalamide hydrochloride] was tested. Which Ki (MC4R [2]) did it give?
Answer: 24 nM

Question: And the EC50 (MC4R [3])?
Answer: 0.675 nM

Question: And the EC50 (MC4R [4])?
Answer: 22.7 nM

Question: And the EC50 (MC4R [5])?
Answer: 3.3 nM

Question: `CCC(=O)N([C@H]1C[C@@H](C(=O)N2CCOCC2)N(C(=O)[C@@H]2CN(C(C)(C)C)C[C@H]2c2ccc(Cl)cc2)C1)[C@H]1CC[C@@H](C)CC1` [Example 2, N-((3S,5S)-1-((3S,4R)-1-(tert-butyl)-4-(4-chlorophenyl)pyrrolidine-3-carbonyl)-5-(morpholine-4-carbonyl)pyrrolidin-3-yl)-N-((1s,4R)-4-methylcyclohexyl)propionamide hydrochloride] was tested. Which Ki (MC4R [2]) did it give?
Answer: 110 nM

Question: What about the EC50 (MC4R [3]) of the same compound?
Answer: 1.07 nM

Question: And the EC50 (MC4R [4])?
Answer: 50.3 nM

Question: And the EC50 (MC4R [5])?
Answer: 8.7 nM
